How the values were obtained:
[1] = tested on: hepatocarcinoma HepG2; assay: Safety, LDH test in HepG2; format: cell-based; settings: 48 hours, vs Triton X-100
Description: (§1) In order to test the safety of the compounds, both normal human cells were used: keratinocytes (HaCaT), fibroblasts (BJ), primary melanocytes that occur in the skin, as well as human cancer cells: the hepatocarcinoma line HepG2 and the neuroblastoma line SH-SY5Y, which are considered a model for the assessment of hepatocytotoxicity and neurocytotoxicity. The concentrations of the tested compounds in the range of […] were used in the studies. The cell lines used in the research were purchased from the American Type Culture Collection (ATCC) and were cultured in media recommended by the manufacturer with the addition of FBS and antibiotics in an incubator ensuring appropriate culture conditions, i.e. humidity, temperature and CO2 concentration. Cells were seeded into multiwell plates and incubated with the test compounds for 48 hours. After this time, MTT and LDH tests were performed to assess cell viability. The MTT test is based on the ability to transform the substrate: [3-(4,5-dimethyl-2-thiazolyl)-2,5-diphenyl-2H-tetrazolium bromide into a colored product only by living cells. The absorbance at 570 nm, which corresponds to the absorption maximum for the product, is directly proportional to cell viability. The LDH test is based on testing the activity of the enzyme lactate dehydrogenase in the culture medium, which is released from cells as a result of damage to the cell membrane, e.g. as a result of cell death. Triton X-100 was used as a positive control in the test. The determination is colorimetric, the substrate is transformed by the released enzyme into a colored product, an increase in absorbance indicates a larger amount of the released enzyme, and thus confirms greater damage to cell membranes. Tables 7 and 8 present the results obtained, which correspond to the viability of cells incubated with the compounds in relation to the viability of cells constituting a control sample, i.e. incubated with the solvent (DMSO) at the same concentration as in the case of the groups tested in the MTT test or in relation to the results obtained for the Triton X-100 positive control in the LDH test. They indicate that the compounds are safe at the concentrations tested.

[2] = tested on: keratinocytes (HaCaT); assay: Safety, MTT test in keratinocytes; format: cell-based; settings: 48 hours
Description: as §1

[3] = tested on: fibroblasts (BJ); assay: Safety, LDH test in fibroblasts; format: cell-based; settings: 48 hours, vs Triton X-100
Description: as §1

[4] = tested on: hepatocarcinoma HepG2; assay: Safety, MTT test in HepG2; format: cell-based; settings: 48 hours
Description: as §1

[5] = tested on: S. typhimurium TA1535; assay: Ames microplate test, TA1535;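 note: bacteria exposed 90 min at 37 °C in exposure medium, then 48 h in indicator medium in 384-well plates, yellow (revertant) wells counted per condition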
[6] = tested on: primary melanocytes; assay: Safety, MTT test in primary melanocytes; format: cell-based; settings: 48 hours
Description: as §1

[7] = tested on: neuroblastoma SH-SY5Y; assay: Safety, MTT test in SH-SY5Y; format: cell-based; settings: 48 hours
Description: as §1

[8] = tested on: CHO-K1 cells; assay: Cytotoxicity (MTT) in CHO-K1 cells before the micronucleus test; format: cell-based, Chinese hamster; settings: 24 hours
Description: The assay was performed using a Chinese hamster ovary cell line (CHO-K1) purchased from the American Type Culture Collection (ATCC). The cells were cultured in F-12K medium with the addition of 10% fetal bovine serum (FBS) and antibiotics (streptomycin/penicillin) in an incubator at 37° C. and 5% CO2 concentration). Before the actual micronucleus test, a cytotoxicity assessment was performed to ensure that the actual test was performed only at safe concentrations. For this purpose, cells were transferred to 96-well plates and incubated with the tested compounds for 24 hours. After this time, the MTT test was performed and cell viability was assessed in comparison to the control group (cells cultured with DMSO at the same concentration as in the case of the tested samples).

[9] = tested on: human reconstructed epidermis model EpiDerm; assay: Extended skin irritation test in reconstructed human epidermis EpiDerm; format: cell-based
Description: Extended Skin Irritation Tests on Reconstructed Human Epidermis-Exposure Time Extended to 7 Days.
In order to perform extended skin irritation (safety) tests on the reconstructed human epidermis, the exposure time to the tested compounds was extended to 2 and 7 days in the human reconstructed epidermis model EpiDerm™ from MatTek. The epidermis was cultured according to the manufacturer's recommendations, using appropriate multi-well plates and culture media. Solutions of the tested compounds were applied to the epidermis using a positive displacement pipette and distributed using a sterile glass bulb headed Pasteur pipette. […] The epidermis was cultured in an incubator ensuring appropriate humidity, temperature (37° C.) and CO2 concentration (5%). The medium was replaced daily. After an appropriate incubation time, i.e. 2 days or 7 days, the epidermis was rinsed with sterile DPBS and incubated with MTT (Thiazolyl Blue Tetrazolium bromide) solution at 37° C. for 3 hours. After this time, a purple color of formazan was observed, correlated with tissue viability. […] Moreover, in the medium collected after the first 24 hours of EpiDerm epidermis culture, the level of interleukin 1α (Il-1α), which is a mediator of inflammation, was determined. Its level correlates with the unfavorable (irritating) effect of the tested substances on the epidermis. The level of IL-1α was determined using the Cayman Elisa test.

[10] = tested on: S. typhimurium TA100; assay: Ames microplate test, TA100; format: cell-based, Salmonella typhimurium

In the case of `O=C(/C=C/c1ccc(Cl)cc1)NCCCCCO` [Compound A-111, (2E)-3-(4-chlorophenyl)-N-(5-hydroxypentyl)prop-2-enamide], the “LDH, Hepatocarcinoma HepG2” value ([1]; 100 μM) is reported as 4.90 percentage of positive control, the “LDH, Hepatocarcinoma HepG2” value ([1]; 150 μM) is reported as 4.73 percentage of positive control and the “LDH, Hepatocarcinoma HepG2” value ([1]; 200 μM) is reported as 5.48 percentage of positive control. The “LDH, Hepatocarcinoma HepG2” value ([1]; 250 μM) was 9.75 percentage of positive control, the “MTT, Keratinocytes (HaCaT)” value ([2]; 100 μM) was 101.68 ± 3.45 % of solvent control and the “MTT, Keratinocytes (HaCaT)” value ([2]; 150 μM) was 101.56 ± 1.94 % of solvent control. The “MTT, Keratinocytes (HaCaT)” value ([2]; 200 μM) was 101.04 ± 2.77 % of solvent control, the “MTT, Keratinocytes (HaCaT)” value ([2]; 250 μM) was 91.57 ± 2.10 % of solvent control and the “LDH, Fibroblasts (BJ)” value ([3]; 100 μM) was 5.25 percentage of positive control. For the same molecule, the “LDH, Fibroblasts (BJ)” value ([3]; 150 μM) was 5.37 percentage of positive control, the “LDH, Fibroblasts (BJ)” value ([3]; 200 μM) was 8.43 percentage of positive control and the “LDH, Fibroblasts (BJ)” value ([3]; 250 μM) was 14.90 percentage of positive control. For the same molecule, the “MTT, Hepatocarcinoma HepG2” value ([4]; 100 μM) was 101.10 ± 6.01 % of solvent control, the “MTT, Hepatocarcinoma HepG2” value ([4]; 150 μM) was 97.87 ± 3.27 % of solvent control and the “MTT, Hepatocarcinoma HepG2” value ([4]; 200 μM) was 98.19 ± 3.27 % of solvent control. For the same molecule, the “MTT, Hepatocarcinoma HepG2” value ([4]; 250 μM) was 96.27 ± 2.57 % of solvent control, the “Increase in the number of yellow wells compared to the reference level, TA1535” value (“Increase in the number of yellow wells … TA1535” for short) ([5]; 0.5 mM, + S9) was 0.58 and the “Increase in the number of yellow wells … TA1535” value ([5]; 0.5 mM, without S9) was 0.55. For the same molecule, the “Increase in the number of yellow wells … TA1535” value ([5]; 1.0 mM, + S9) was 0.35, the “Increase in the number of yellow wells … TA1535” value ([5]; 1.0 mM, without S9) was 0.18 and the “Increase in the number of yellow wells … TA1535” value ([5]; 2.0 mM, + S9) was 0.23. The “Increase in the number of yellow wells … TA1535” value ([5]; 2.0 mM, without S9) was 1.65, the “MTT, Primary melanocytes” value ([6]; 100 μM) was 104.51 ± 1.19 % of solvent control and the “MTT, Primary melanocytes” value ([6]; 150 μM) was 103.09 ± 1.79 % of solvent control. The “MTT, Primary melanocytes” value ([6]; 200 μM) was 99.25 ± 1.92 % of solvent control, the “MTT, Primary melanocytes” value ([6]; 250 μM) was 93.39 ± 1.60 % of solvent control and the “MTT, Neuroblastoma SH-SY5Y” value ([7]; 100 μM) was 100.14 ± 3.22 % of solvent control. The “MTT, Neuroblastoma SH-SY5Y” value ([7]; 150 μM) was 99.32 ± 3.36 % of solvent control, the “MTT, Neuroblastoma SH-SY5Y” value ([7]; 200 μM) was 100.55 ± 2.31 % of solvent control and the “MTT, Neuroblastoma SH-SY5Y” value ([7]; 250 μM) was 99.93 ± 4.36 % of solvent control. The “% Viability [mean], CHO-K1” value ([8]; 100 μM) was 86.1%, the “% Viability [mean], CHO-K1” value ([8]; 150 μM) was 95.6% and the “% Viability [mean], CHO-K1” value ([8]; 200 μM) was 98.6%. The “Viability [% of control, mean ± SD] 2 days” value ([9]; 0.1% in 50% PEG (10 μL)) was 88.42 ± 1.25 % of control, the “Viability [% of control, mean ± SD] 7 days” value ([9]; 0.1% in 50% PEG (10 μL)) was 107.77 ± 3.12 % of control and the “Viability [% of control, mean ± SD] 2 days” value ([9]; 0.5% in 50% PEG (10 μL)) was 92.02 ± 3.47 % of control. The “Viability [% of control, mean ± SD] 7 days” value ([9]; 0.5% in 50% PEG (10 μL)) was 113.85 ± 4.03 % of control, the “Viability [% of control, mean ± SD] 2 days” value ([9]; 1.0% in 50% PEG (10 μL)) was 98.56 ± 11.78 % of control and the “Viability [% of control, mean ± SD] 7 days” value ([9]; 1.0% in 50% PEG (10 μL)) was 100.41 ± 1.52 % of control. For the same molecule, the “Il-1α in culture medium” value ([9]; 1.0% in 50% PEG (10 μL), medium after first 24 hours) was 15.89 ± .057 pg/mL, the “Increase in the number of yellow wells compared to the reference level, TA100” value (from here on “Increase in the number of yellow wells … TA100”) ([10]; 0.5 mM, + S9) was 0.97 and the “Increase in the number of yellow wells … TA100” value ([10]; 0.5 mM, without S9) was 0.74. For the same molecule, the “Increase in the number of yellow wells … TA100” value ([10]; 1.0 mM, + S9) was 0.47, the “Increase in the number of yellow wells … TA100” value ([10]; 1.0 mM, without S9) was 0.39 and the “Increase in the number of yellow wells … TA100” value ([10]; 2.0 mM, + S9) was 0.67. The “Increase in the number of yellow wells … TA100” value ([10]; 2.0 mM, without S9) was 0.42.

From patent US20250263376A1, “(E)-N-CINNAMOYLAMINOALKANOLS WITH MELANOGENESIS INHIBITORY ACTIVITY” (Uniwersytet Jagiellonski, priority 2024, published 2025)
